Laboratory results: US12702693B2, “Treatment of cystic fibrosis by delivery of codon-optimized mRNA encoding CFTR” (Translate Bio, Inc., priority 2017, dated 2026)

Experiments:
[1] = tested on: human bronchial epithelial cells; assay: Ussing chamber assay of Forskolin-induced chloride channel activity; assay type: cell-based; settings: all groups
Method: The changes in chloride transport across the bronchial epithelial cell membrane was measured by short circuit current output in an Ussing epithelial voltage clamp apparatus (i.e., a Ussing chamber). Specifically, using an established Ussing Chamber procedure (Charles River Laboratories), hCFTR mRNA encapsulated in a liposome comprising ICE, DOPE, and a PEG-modified lipid was incubated for 2 or 4 hours on the apical (mucosal) or basolateral (serosal) sides, or both sides, of human bronchial epithelial cells. A buffer blank also was included as a control, for example, to assess chloride transport by endogenous CFTR in the cells. Next, Forskolin-induced chloride channel activity was measured using the Ussing chamber assay.

[2] = available data; cited from earlier work

Row | Structure (SMILES) | chloride activity after addition of CFTR inhibitor [1] | mutagenicity/genotoxicity data [2]
1 | O=C(O)c1ccc(/C=C2\SC(=S)N(c3cccc(C(F)(F)F)c3)C2=O)cc1 [CFTR inhibitor-172] | inhibited | –
2 | CC(C)CCC[C@@H](C)[C@H]1CC[C@H]2[C@@H]3CC=C4C[C@@H](O)CC[C@]4(C)[C@H]3CC[C@]12C [cholesterol] | – | negative
3 | c1c[nH]cn1 [imidazole] | – | negative
4 | CCC(=O)O [propionic acid] | – | negative
